Measured values reported in ChEMBL document CHEMBL3507680, “University of Dundee, Gates Library screen for HepG2 cell viability”.

Experiment: Human HepG2 cell viability assay in 384 well format
Type: toxicity, cell-based
Set-up: dose 125 nL, time 70.5 hour; concentration not given beside the values
Settings: HepG2 cells, read-out: Inhibition

Structure (SMILES)	cytotoxicity at 70.5 h [%]
CC1CCCCN1CCNC(=O)c1ccn(-c2cccc(F)c2)n1 (centres undefined)	-0.176
NS(=O)(=O)c1cccc(CNc2nccc(C(F)(F)F)n2)c1	-5.9
CC(C)COCC(NC(=O)c1cnccn1)c1ccco1 (centres undefined)	-10.5
O=C(NCCc1ccccn1)C1CC(=O)N(CC(F)(F)F)C1 (centres undefined)	-2.42
CCCOc1cc(C)ccc1NC(=O)N(C)Cc1cnn(C)c1	-4.07
Cc1ccc(F)c(NC(=O)NCCCn2nc3ccccn3c2=O)c1	-3.3
CCc1nccn1C1CCCN(C(=O)c2ccoc2C)C1 (centres undefined)	1.06
Cc1ccc(CC(=O)N2CCCC2Cn2nc(C)cc2C)cn1 (centres undefined)	-11.5
Cc1ccc(CC(=O)N2CCN(c3nccs3)CC2)s1	14.7
Cc1cc(C(=O)NC(COCC(C)C)c2ccco2)no1 (centres undefined)	-1.3
c1ncn(CC2CCCN(Cc3csc(-c4ccsc4)n3)C2)n1 (centres undefined)	2.18
CC(Cn1cccn1)NCc1csc(COc2ccc(F)cc2)n1 (centres undefined)	-1.54
CCCc1nc(CNC(C)Cn2cccn2)cs1 (centres undefined)	3.08
c1ccc2oc(CCCN3CCCC3c3noc(C4CC4)n3)nc2c1 (centres undefined)	17.9
CC(C)C1CCCN1CCCc1nc(-c2cccs2)no1 (centres undefined)	2.81
CC(O)CN1CCC(CNCc2cccc(Cl)c2)CC1 (centres undefined)	12.3
COc1ccc(C(=O)N2CCCCC2c2nccs2)c(OC)c1 (centres undefined)	-6.39
Cc1noc(C)c1CN1CCCC(c2noc(C3CC3)n2)C1 (centres undefined)	-7.9
CCCc1nc(CN2CCCC(c3noc(C4CC4)n3)C2)no1 (centres undefined)	-4.77
COc1ccc(CCCNCc2c(C)nn(C)c2N(C)C)cc1OC	4.5

Structure (SMILES)	cytotoxicity at 70.5 h [%]
Cc1ccc(S(=O)(=O)NC(=O)CCC2CCCO2)cc1 (centres undefined)	0.693
O=C(CN1CCCC1c1cccs1)N1CCc2sccc2C1 (centres undefined)	-0.311
COc1cccc(S(=O)(=O)NC(=O)CCC2CCCO2)c1 (centres undefined)	1.07
COc1cc(CNCc2c(C)nn(C)c2N(C)C)ccc1OCCO	5.42
O=C(NCCOC1CCCC1)c1ccc(-c2ccco2)[nH]c1=O	-2.19
O=C1COc2c(cccc2C(=O)N2CCCC(n3cccn3)C2)N1 (centres undefined)	23.6
CC(O)CN1CCC(CNCc2ccc(C(N)=O)cc2)CC1 (centres undefined)	-0.474
Cc1ccc(CC(=O)N2CCN(C3CCOC3=O)CC2)cc1 (centres undefined)	-1.49
c1csc(-c2noc(CN3CCCC3Cn3cccn3)n2)c1 (centres undefined)	-2.35
Cn1nc2c(cc1=O)CN(Cc1coc(-c3ccc(F)cc3)n1)CC2	14.8
Cn1nc2c(cc1=O)CN(Cc1coc(-c3cccc(F)c3)n1)CC2	-2.83
COc1ccc(COCC(=O)N2CCCC(n3cncn3)C2)cc1 (centres undefined)	19.2
c1ccc(OCCN2CCCCC2Cn2cncn2)cc1 (centres undefined)	23.7
O=C(NCc1nncn1-c1ccccc1)C1CCCC1	-4.48
O=C(NCc1nncn1-c1ccccc1)C1CCCCC1	-0.117
COc1ccc(CNC(=O)Nc2cccnc2N2CCCC2)cc1	20.6
CC(NC(=O)CCCOc1ccc(F)cc1)c1nnc2n1CCC2 (centres undefined)	-1.76
NC(=O)N1CCC(C(=O)NCc2nncn2-c2ccccc2)CC1	1.01
Cc1cnn(CC2CN(Cc3nc(-c4ccco4)no3)CCO2)c1 (centres undefined)	-0.209
O=C(NCC(=O)N1CCCC(n2cncn2)C1)OCc1ccccc1 (centres undefined)	-0.265

Structure (SMILES)	cytotoxicity at 70.5 h [%]
Cc1ccc(CCC(=O)N2CCCC(c3cc(C(N)=O)[nH]n3)C2)cc1 (centres undefined)	0.115
COc1ccccc1C1(C(=O)N2CCCC(c3cc(C)[nH]n3)C2)CC1 (centres undefined)	-0.122
CCOCC(O)CN1CCN(C(=O)C2CCCC2)CC1 (centres undefined)	-0.535
Cc1ccc(N2CCCC(NCc3cccs3)C2)nn1 (centres undefined)	-1.01
Cc1ccc(N2CCCC(NCc3ccc4c(c3)OCCO4)C2)nn1 (centres undefined)	1.38
c1cnn(CC2CN(Cc3nc(-c4ccoc4)no3)CCO2)c1 (centres undefined)	24.3
Cc1ccc(N2CCCC(NCC3=Cc4ccccc4OC3)C2)nn1 (centres undefined)	-5.84
Cc1cnn(CC2CN(Cc3nc(-c4ccccn4)no3)CCO2)c1 (centres undefined)	2.23
Cc1nn(C)c(Cl)c1C1CCCN1CC(=O)Nc1cccnc1 (centres undefined)	-6.29
COc1cccc(COCC(=O)N2CCCC(n3cncn3)C2)c1 (centres undefined)	-1.04
CCOCC(O)CN1CCN(C(=O)C2CCCCC2)CC1 (centres undefined)	-0.878
Cc1nc(C)n(C2CCCN(C(=O)c3ncoc3C(C)C)C2)n1 (centres undefined)	-11.1
CC(C)Oc1ncccc1CNC(=O)c1cnccn1	-5.94
CS(=O)(=O)NCC1CCCN(C(=O)c2ccco2)C1 (centres undefined)	-6.79
COc1ccccc1C(=O)NC(C)CC(=O)O (centres undefined)	-7.64
Cc1cnn(CCNCc2cccnc2)c1	-1.13
CC(C)n1ccnc1CN1CCCN(C(=O)COC2CCCC2)CC1	-3.66
CC(C)(C)n1ncc2c1CCCC2NCc1cccc2c1OCO2 (centres undefined)	-1.84
Cc1nc(C2CCCN(C(=O)c3cccc(S(C)(=O)=O)c3)C2)no1 (centres undefined)	-9.98
